Entries after “also recorded” stand apart in the source; their conditions may differ.
Legend:
[1] = molecular target: T1, Aβ43 (Homo sapiens, UniProt P05067); experiment: Spontaneous Aβ43 fibrillization (ThT fluorescence, EM); type: biochemical
[2] = molecular target: T2, FUS (Homo sapiens, UniProt P35637); experiment: FUS aggregation (turbidity, absorbance at 395 nm); type: biochemical; conditions: GST-FUS 5 μM, foldamer 20 μM, plus TEV protease, 25°C, 0–90 min
T2 sequence (P35637 1-526): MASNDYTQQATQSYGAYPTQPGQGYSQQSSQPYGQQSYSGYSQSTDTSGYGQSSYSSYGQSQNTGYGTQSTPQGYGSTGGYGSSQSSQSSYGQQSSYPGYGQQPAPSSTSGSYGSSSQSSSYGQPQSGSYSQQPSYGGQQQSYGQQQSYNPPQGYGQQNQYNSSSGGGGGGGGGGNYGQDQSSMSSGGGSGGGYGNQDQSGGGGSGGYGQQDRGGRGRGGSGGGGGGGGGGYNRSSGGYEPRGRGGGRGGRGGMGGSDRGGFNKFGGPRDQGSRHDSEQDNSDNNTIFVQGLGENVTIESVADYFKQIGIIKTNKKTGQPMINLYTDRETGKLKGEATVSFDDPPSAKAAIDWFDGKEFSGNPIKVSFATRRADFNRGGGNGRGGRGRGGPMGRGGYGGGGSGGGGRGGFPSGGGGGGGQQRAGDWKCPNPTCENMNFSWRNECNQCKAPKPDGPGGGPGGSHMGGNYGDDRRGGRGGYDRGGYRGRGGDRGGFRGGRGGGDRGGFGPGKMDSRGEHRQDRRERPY
Description: GST–TEV–FUS was purified as described. Aggregation was initiated by addition of tobbaco etch virus (TEV) protease to GST–TEV–FUS (5 μM) plus or minus foldamer (20 μM) in assembly buffer (50 mM Tris/HCl pH 8, 0.2 M trehalose and 20 mM glutathione). Aggregation was for 0–90 min at 25°C without agitation in a 96-well plate and was assessed by turbidity (absorbance at 395 nm) using a Tecan Infinite M1000 plate reader. No aggregation occurred unless TEV protease was added to separate GST from FUS [58].

[3] = system: SH-SY5Y human neuroblastoma cells; experiment: Toxicity of Aβ43 conformers to SH-SY5Y cells (MTT reduction, LDH release); type: cell-based; conditions: 24 h, MTT and LDH
Description: (§1) SH-SY5Y human neuroblastoma cells were maintained in Dulbecco's modified Eagle's medium (DMEM) plus 10 mM Hepes, 10% FBS, 4 mM glutamine, penicillin (200 units/ml) and streptomycin (200 μg/ml) in 5% CO2 at 37°C. Cells were differentiated in serum-free DMEM with N2 supplement and 10 μM all-trans-retinoic acid before use. Cells were plated at (10000 cells/well) in 96-well plates and grown overnight. Medium was removed and Aβ conformers or controls were added and cells were incubated for 24 h at 37°C. Toxicity was assessed using an MTT kit (Tox-1; Sigma) or via lactate dehydrogenase (LDH) release using the CytoTox-ONE™ kit (Promega). Toxicity values were normalized to the buffer control without Aβ.

[4] = molecular target: T1, Aβ43; experiment: Seeded Aβ43 fibrillization (ThT fluorescence, EM); type: biochemical; conditions: Aβ43 5 μM plus seed 0.1 μM monomer, foldamer 5, 10 or 20 μM, 0–2 h, 25°C, ThT; EM
[5] = molecular target: T3, Aβ42 (Homo sapiens, UniProt P05067); experiment: Spontaneous Aβ42 fibrillization (ThT fluorescence, EM); type: biochemical; conditions: for Inhibition of spontaneous Aβ42 fibrillization: Aβ42 5 μM, foldamer 10 μM, 8 h, agitation, ThT fluorescence (EM 4 h)
[6] = molecular target: T3, Aβ42; experiment: Seeded Aβ42 fibrillization (ThT fluorescence, EM); type: biochemical
[7] = system: SH-SY5Y human neuroblastoma cells; experiment: Toxicity of Aβ42 conformers to SH-SY5Y cells (MTT reduction, LDH release); type: cell-based; conditions: 24 h, MTT and LDH
Description: as §1

[8] = molecular target: Aβ42 fibrils (Homo sapiens, UniProt P05067); experiment: Disassembly of preformed Aβ42 fibrils; type: biochemical; conditions: foldamer in 4-fold molar excess, 24 h (results not shown)
[9] = molecular target: Aβ43 oligomers (Homo sapiens, UniProt P05067); experiment: A11-reactive Aβ43 conformers (ELISA); type: biochemical; conditions: Aβ43 5 μM, foldamer 20 μM, 25°C
[10] = molecular target: Aβ42 oligomers (Homo sapiens, UniProt P05067); experiment: A11-reactive Aβ42 conformers (ELISA); type: biochemical; conditions: Aβ42 5 μM, foldamer 20 μM, 25°C
[11] = 4 h (endpoint of fibrillization)

T3 sequence (P05067 672-713 limits assumed): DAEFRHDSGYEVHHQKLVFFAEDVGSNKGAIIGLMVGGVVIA
T1 sequence (P05067 672-714 limits assumed): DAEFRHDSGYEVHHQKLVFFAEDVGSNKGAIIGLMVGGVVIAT
Chain of Aβ42 oligomers (P05067 672-713 limits assumed): as the sequence (P05067 672-713 limits assumed) above
Chain of Aβ43 oligomers (P05067 672-714 limits assumed): as the sequence (P05067 672-714 limits assumed) above
Chain of Aβ42 fibrils (P05067 672-713 limits assumed): as the sequence (P05067 672-713 limits assumed) above

Ac-Sal-(Lys-Sal)3-CONH2 was tested, and the “Inhibition of spontaneous Aβ43 fibrillization” value ([1]; Aβ43 5 μM, foldamer 5, 10 or 20 μM, 0–8 h, 25°C, ThT, EM 10 μM 4 h) was “did not block spontaneous Aβ43 fibrillization”, the “Inhibition of FUS aggregation” value [2] was “did not inhibit FUS aggregation” and the “Effect on toxicity of Aβ43 conformers after 0.5 h of assembly” value ([3]; Aβ43 5 μM assembled with foldamer 20 μM for 0.5 h) was “neither Sal-(Lys-Sal)3-CONH2 nor Ac-Sal-(Lys-Sal)3-CONH2 affected the toxicity”. For the same compound, the “Effect on toxicity of Aβ43 conformers after 4 h of assembly” value ([3]; Aβ43 5 μM assembled with foldamer 20 μM for 4 h) was “neither Sal-(Lys-Sal)3-CONH2 nor Ac-Sal-(Lys-Sal)3-CONH2 affected the toxicity”, the “Inhibition of seeded Aβ43 fibrillization” value [4] was “did not inhibit seeded Aβ43 fibrillization” and the “Inhibition of spontaneous Aβ42 fibrillization” value ([5]; 25°C) was “strong inhibitors; also recorded: potent inhibitors”. For the same compound, the “Inhibition of spontaneous Aβ42 fibrillization, different assembly conditions” value ([5]; Aβ prepared without DMSO, PBE pH 8, Aβ42 5 μM, foldamer 20 μM, 16 h, 25°C, ThT) was “inhibited”, the “Inhibition of seeded Aβ42 fibrillization” value ([6]; Aβ42 5 μM plus seed 0.1 μM monomer, foldamer 5, 10 or 20 μM, 0–2 h, 25°C) was “inhibited seeded Aβ42 fibrillization at all concentrations tested” and the “Inhibition of seeded Aβ42 fibrillization, different assembly conditions” value ([6]; Aβ prepared without DMSO, PBE pH 8, Aβ42 5 μM plus seed 0.1 μM monomer, foldamer 20 μM, 16 h) was “inhibited”. For the same compound, the “Effect on toxicity of Aβ42 conformers after 0.5 h of assembly” value ([7]; Aβ42 5 μM assembled with foldamer 20 μM for 0.5 h) was “had no effect”, the “Effect on toxicity of Aβ42 conformers after 4 h of assembly” value ([7]; Aβ42 5 μM assembled with foldamer 20 μM for 4 h) was “enhanced” and the “Disassembly of Aβ42 fibrils” value [8] was “did not disassemble Aβ42 fibrils”. For the same compound, the “Effect on A11-reactive Aβ43 conformers after 0.5 h” value ([9]; 0.5 h (end of lag phase)) was “had no effect”, the “Effect on A11-reactive Aβ43 conformers after 4 h” value [9, 11] was “declined more extensively” and the “Effect on A11-reactive Aβ42 conformers after 0.5 h” value ([10]; 0.5 h (end of lag phase)) was “had no effect”. The “Effect on A11-reactive Aβ42 conformers after 4 h” value [10, 11] was “remained at higher levels”.
With (Arg-Sal)2-(Cit-Sal)-(Arg-Sal)-CONH2 the “Inhibition of spontaneous Aβ42 fibrillization” value ([5]; 25°C) was “ineffective”.
In the case of (Arg-Sal-Cit-Sal)2-CONH2, the “Inhibition of spontaneous Aβ42 fibrillization” value ([5]; 25°C) is reported as “ineffective”.
`COc1ccc(NC(=O)[C@H](CCCNC(N)=O)NC(=O)c2cc(NC(=O)[C@H](CCCNC(=N)N)NC(=O)c3cc(NC(=O)[C@H](CCCNC(=N)N)NC(=O)c4cc(NC(=O)[C@@H](N)CCCNC(=N)N)ccc4OC)ccc3OC)ccc2OC)cc1C(N)=O` [(Arg-Sal)3-(Cit-Sal)-CONH2] showed an IC50 [1] of roughly 3100 nM and an IC50 [5] of roughly 1600 nM.
In the case of (Lys-Sal)2-CONH2, the “Inhibition of spontaneous Aβ42 fibrillization” value ([5]; 25°C) is reported as “failed to inhibit assembly”.
With (Lys-Sal)4-CONH2 the “Inhibition of spontaneous Aβ42 fibrillization” value ([5]; 25°C) was “ineffective”.
For Ac-(Lys-Sal)3-CONH2, the “Inhibition of spontaneous Aβ42 fibrillization” value ([5]; 25°C) was “failed to inhibit assembly”.
For Ac-(Lys-Sal)2-CONH2, the “Inhibition of spontaneous Aβ42 fibrillization” value ([5]; 25°C) was “failed to inhibit assembly”.
For (Cit-Sal)2-(Arg-Sal)-(Cit-Sal)-CONH2, the “Inhibition of spontaneous Aβ42 fibrillization” value ([5]; 25°C) was “ineffective”.
